The results in this text go back to the METLIN SMRT retention time set (Domingo-Almenara et al. 2019).

The nature of this series: gradient 5% acetonitrile 3 min, to 50% in 2 min, to 85% in 15 min, held 3 min, 100 µL/min. The settings on record: column: Zorbax Extend-C18 2.1 x 50 mm; eluents: water / acetonitrile, 0.1% formic acid. An outline of the steps: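 Values are retention times taken from adduct peaks that software picked and an analyst inspected. The pure standards were run as mixtures of ~100 molecules on HPLC linked to a quadrupole time-of-flight mass spectrometer, in positive and negative ionization mode. A Zorbax Extend-C18 column (2.1 × 50 mm, 1.8 μm) was used at 100 μL/min with water and acetonitrile, each including 0.1% formic acid.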
Consider `CCn1c(=O)cc(OCC(=O)NCCN(C)Cc2ccccc2)c2ccccc21`, for which the RP-LC retention time was 617 s.

`COc1ccc(Cc2nc(-c3ccc4c(c3)ncn4CCN3CCCCC3)no2)cc1`: the RP-LC retention time is 626 s.

`CCC(CC)NCCOC(=O)c1ccc([N+](=O)[O-])cc1`: the RP-LC retention time worked out at 705 s.

Compound `CCN(C(=O)Cn1nc2cc(-c3ccccc3)nc(C)n2c1=O)c1cccc(C)c1` had an RP-LC retention time of 862 s.

In turn, `O=C(COc1ccccc1F)NC1CCCC(OC(=O)Nc2ccccc2)C1` (centres undefined) displayed an RP-LC retention time of 872 s.

For `CCOc1ccc(N2C(=O)C3N=NN(Cc4nc(-c5ccc6c(c5)OCO6)no4)C3C2=O)cc1` (centres undefined), the RP-LC retention time was 963 s.

The compound `Cc1oc(-c2[nH]ncc2C(=O)N(C)C)cc1S(=O)(=O)Nc1cccc(Cl)c1` showed an RP-LC retention time of 703 s.

As for `O=C(Cc1cccc(F)c1)Nc1cc(-c2ccccn2)no1`, the RP-LC retention time was found to be 800 s.

Consider `CCC(C(=O)NCCCN1CCCC1)n1nc(C)c2sc3ccccc3c2c1=O` (centres undefined), for which the RP-LC retention time was determined as 669 s.

`CCOC1CCOC2(CCN(C(=O)c3ccoc3)CC2)C1` (centres undefined) gave an RP-LC retention time of 686 s.

Compound `CC(=O)SCc1nc(SCC(=O)Nc2ccccc2C)n[nH]1` came in with an RP-LC retention time of 623 s.

The compound `CC(C)Cn1c(=O)c(N2CCN(C(=O)c3ccc(Cl)cc3)CC2)nc2ccncc21` showed an RP-LC retention time of 689 s.

`Cc1c(N2CCC(C(=O)NCC3CCCO3)CC2)c(=O)n(CC(C)C)c(=O)n1-c1ccccc1` (centres undefined): the RP-LC retention time came to 832 s.

Turning to `CN(C(=O)Cn1nc(Cc2ccncc2)c2ccccc2c1=O)c1ccccc1Cl`, the RP-LC retention time was found to be 627 s.

As for `O=C(Nc1ccc(F)cc1F)N1CCC(CCNC(=O)C2(c3ccccc3)CC2)CC1`, the RP-LC retention time came to 886 s.

In turn, `CCc1nc2nc3c(c(N4CCN(c5ccccn5)CC4)n2n1)CCC3` showed an RP-LC retention time of 581 s.

Take `O=C(NCc1cccnc1)C1CCN(Cc2cc3ccccc3n2Cc2cccc(F)c2)CC1`: the RP-LC retention time was determined as 608 s.

In turn, `O=C(Nc1ccccc1C(F)(F)F)N1CCC(n2cnc3cccnc32)CC1` had an RP-LC retention time of 657 s.

`Cc1cccc(NC(=O)Cc2csc3nc(-c4cccc(Br)c4)cn23)c1C`: the RP-LC retention time was determined as 983 s.

`CCOc1ccc(-c2cc3c(=O)n(Cc4nc(-c5ccc6c(c5)OCO6)no4)ncn3n2)cc1` showed an RP-LC retention time of 1100 s.

Take `CCCS(=O)(=O)N1CC(=O)N(c2cc(Cl)ccc2C)C(C)(C(=O)NC2CCCCC2)C1` (centres undefined): the RP-LC retention time turned out to be 982 s.

Regarding `O=C(NCCn1c(=O)n(Cc2ccc(F)cc2)c2cccnc21)c1ccc2c(c1)OCO2`, the RP-LC retention time is 778 s.

As to `CCc1nc(-c2cccc(NC(=O)c3cncc(Br)c3)c2)no1`, the RP-LC retention time was 926 s.

Compound `O=C(NCCCn1cccn1)c1c(OCC2CC2)cc(=O)n2c1CCCCC2` showed an RP-LC retention time of 634 s.

In turn, `COc1ccc(Cl)cc1NC(=O)CCc1c(-c2ccc(F)cc2)nc2ccccn12` registered an RP-LC retention time of 724 s.

Compound `CCN(CC)C(=O)Cn1c(C(F)(F)F)nc2cc3c(cc21)OCCO3` gave an RP-LC retention time of 811 s.

As to `O=C(NCc1cccs1)C1CCN(c2nnc(-c3ccccc3)o2)CC1`, the RP-LC retention time was found to be 769 s.

`CC(=O)Nc1ccc(S(=O)(=O)N2CCN(c3cnn4c(C)nnc4c3)CC2)cc1` gave an RP-LC retention time of 593 s.

Take `O=C(NC1CCCCC1)c1nc(Nc2ccccc2)c2ccccc2n1`: the RP-LC retention time worked out at 861 s.

In the case of `CC(C)c1ccc(-c2ccnc3c(C(=O)NCCCc4ccco4)cnn23)cc1`, the RP-LC retention time turned out to be 1180 s.

On to `Cc1onc2c(=O)n(CC(=O)N3CCN(c4ccccn4)CC3)nc(-c3ccc(Cl)cc3)c12`, for which the RP-LC retention time turned out to be 693 s.

The compound `CCOC(=O)c1ccc(OCCC2CCN(c3ccc(C)nn3)CC2)cc1` yielded an RP-LC retention time of 837 s.

For the compound `CCCCCn1c(=O)c2ccccc2n(Cc2nc(-c3cccc(C)c3)no2)c1=O`, the RP-LC retention time was found to be 1310 s.

`OC1(Cc2ccccc2)CCNCC1` displayed an RP-LC retention time of 612 s.

As to `Cc1cccc(CNC(=O)c2c(C)sc3ccn(C)c(=O)c23)c1`, the RP-LC retention time is 787 s.

Consider `S=C1NCCN1c1ccccc1Cl`, for which the RP-LC retention time stood at 702 s.

Take `COc1cccc(CNC(=O)Nc2cccc(-c3ccc(N4CCOCC4)nn3)c2)c1`: the RP-LC retention time was 670 s.

Regarding `O=C(NCc1ccco1)c1cn(-c2cc(N3CCOCC3)ncn2)cn1`, the RP-LC retention time was 651 s.

As for `COC(=O)CC1=CC(SCC(=O)NC2CCc3ccccc32)=Nc2ccccc2N1` (centres undefined), the RP-LC retention time worked out at 547 s.

Take `CC(C)n1c(=O)sc2cc(S(=O)(=O)N3CCC(C(=O)N4CCN(C)CC4)CC3)ccc21`: the RP-LC retention time is 628 s.

In turn, `Cc1ccc(-c2cn3ccn(-c4ccc(C)c(C)c4)c(=O)c3n2)cc1` yielded an RP-LC retention time of 931 s.

For `O=C(Cc1nnc(-c2ccc3ncccc3c2)o1)Nc1ccc(F)cc1Cl`, the RP-LC retention time came to 730 s.

Take `COc1cc(-c2nc3ccc(C)cn3c2Nc2ccc3c(c2)OCCO3)ccc1O`: the RP-LC retention time was 636 s.

As to `COc1ccc(CNC(=O)NCCc2cn(C)c3ncccc23)cc1`, the RP-LC retention time was found to be 649 s.

With `COc1ccc(-n2nc(C(=O)Nc3ccc4c(c3)OCCO4)c(=O)cc2OC)cc1`, the RP-LC retention time came out at 758 s.

`CSc1ccc(CNC(=O)COc2nc(C)nc3ccccc23)cc1` came in with an RP-LC retention time of 734 s.

`O=C(Nc1ccc(F)cc1)C1CCCN(c2nc3ccccc3nc2C(F)(F)F)C1` (centres undefined) registered an RP-LC retention time of 1190 s.

As to `O=S(=O)(Nc1cccc(-c2cn3ccccc3n2)c1)c1ccccc1`, the RP-LC retention time worked out at 626 s.

In the case of `Cc1cc(Cl)cc2sc(N(Cc3ccccn3)C(=O)CN(C)S(C)(=O)=O)nc12`, the RP-LC retention time was 1080 s.

On to `CC(C)CNC(=O)NCCn1nnc2cc(C(=O)N3CCCC3)ccc21`, for which the RP-LC retention time worked out at 618 s.

For `COc1ccc(C2(C(=O)N3CCCN(Cc4noc(-c5ccccc5)n4)CC3)CC2)cc1`, the RP-LC retention time turned out to be 703 s.

Compound `CN1c2ccc(F)cc2C(=O)NC12CCN(C(=O)NCc1ccc(F)cc1)CC2` had an RP-LC retention time of 750 s.

As for `O=S(=O)(c1ccc(Br)cc1)N1CCc2nc(-c3ccccc3)ncc2C1`, the RP-LC retention time is 1120 s.

`Cc1ccc(C)c(Sc2cc(N3CCC(C(=O)N4CCC(C(N)=O)CC4)CC3)ncn2)c1` gave an RP-LC retention time of 652 s.

Regarding `CC(=O)c1cccc(NC(=O)N2CCc3c(c(COc4ccc(F)cc4)nn3C)C2)c1`, the RP-LC retention time was 801 s.

As to `CC(=O)NCC(=O)N1CC(F)(F)C[C@H]1c1nc(C2CC2)no1`, the RP-LC retention time turned out to be 639 s.

For the compound `Cc1c(OCC(N)=O)ccc2c1O/C(=C\c1ccc3c(c1)OCO3)C2=O`, the RP-LC retention time turned out to be 714 s.

Take `O=C(NCc1cccc(Br)c1)C1CCCN(c2ccc(=O)n(-c3cccc(F)c3)n2)C1` (centres undefined): the RP-LC retention time is 899 s.

With `C=CCN1CCc2c(cc(O)c(O)c2Br)[C@@H](c2ccccc2)C1`, the RP-LC retention time was 670 s.
